Measurements taken from ChEMBL document CHEMBL1287696, “N-substituted pyrrolidines and tetrahydrofurans as novel AMPAR positive modulators” (Bioorg Med Chem Lett, 2010).

Assays:
Glutamate receptor 2 [1] = target: T1, Glutamate receptor 2 (Homo sapiens, UniProt P42262); experiment: Positive modulation of human GluA2 flip receptor by FLIPR assay
[2] = target: Voltage-gated inwardly rectifying potassium channel KCNH2 (Homo sapiens, UniProt Q12809); experiment: Displacement of [3H]-dofetilide from human hERG
Liver microsomes = experiment: Intrinsic clearance in human liver microsomes; assay type: ADME, Microsome
Glutamate receptor 2 [3] = target: T1, Glutamate receptor 2; experiment: Positive modulation of human GluA2 flip receptor by FLIPR assay relative to cyclothiazide; set-up: concentration or dose not given beside the values
[4] = Aqueous solubility of the compound; assay type: physicochemical; conditions: aqueous medium
[5] = Ratio of drug level in brain to blood in rat
[6] = Half life in rat; assay type: ADME, organism-based; conditions: in vivo

Sequence of Voltage-gated inwardly rectifying potassium channel KCNH2 (Q12809 whole entry): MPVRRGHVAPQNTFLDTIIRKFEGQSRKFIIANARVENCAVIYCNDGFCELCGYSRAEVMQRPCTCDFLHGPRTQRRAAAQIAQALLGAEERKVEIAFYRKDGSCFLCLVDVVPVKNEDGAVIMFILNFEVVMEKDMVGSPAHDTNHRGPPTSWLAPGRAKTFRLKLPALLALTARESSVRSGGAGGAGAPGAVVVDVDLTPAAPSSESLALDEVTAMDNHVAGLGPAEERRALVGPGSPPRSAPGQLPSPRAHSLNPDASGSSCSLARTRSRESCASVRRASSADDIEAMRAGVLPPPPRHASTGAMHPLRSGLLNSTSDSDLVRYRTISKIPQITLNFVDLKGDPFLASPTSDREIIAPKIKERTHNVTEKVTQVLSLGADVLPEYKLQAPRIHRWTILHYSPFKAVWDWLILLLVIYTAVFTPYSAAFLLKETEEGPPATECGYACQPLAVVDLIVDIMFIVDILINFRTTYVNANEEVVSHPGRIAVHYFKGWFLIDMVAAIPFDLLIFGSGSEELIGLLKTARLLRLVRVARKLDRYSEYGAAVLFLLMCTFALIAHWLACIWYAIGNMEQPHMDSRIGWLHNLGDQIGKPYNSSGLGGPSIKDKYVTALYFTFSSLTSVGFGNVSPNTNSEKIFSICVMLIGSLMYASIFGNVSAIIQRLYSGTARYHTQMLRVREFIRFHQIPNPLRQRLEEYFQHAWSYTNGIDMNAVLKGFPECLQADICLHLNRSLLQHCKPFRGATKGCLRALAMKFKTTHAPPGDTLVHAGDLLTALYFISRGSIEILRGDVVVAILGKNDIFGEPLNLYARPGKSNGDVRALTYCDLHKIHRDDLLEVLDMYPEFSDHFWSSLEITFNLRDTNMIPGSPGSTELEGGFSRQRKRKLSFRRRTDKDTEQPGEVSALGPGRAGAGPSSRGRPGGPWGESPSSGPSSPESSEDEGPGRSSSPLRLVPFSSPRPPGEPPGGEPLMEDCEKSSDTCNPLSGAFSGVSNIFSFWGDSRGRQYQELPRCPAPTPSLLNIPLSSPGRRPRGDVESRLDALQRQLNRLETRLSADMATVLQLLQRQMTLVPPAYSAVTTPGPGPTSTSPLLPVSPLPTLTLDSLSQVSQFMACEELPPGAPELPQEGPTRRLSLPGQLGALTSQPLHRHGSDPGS
T1 sequence (P42262 whole entry): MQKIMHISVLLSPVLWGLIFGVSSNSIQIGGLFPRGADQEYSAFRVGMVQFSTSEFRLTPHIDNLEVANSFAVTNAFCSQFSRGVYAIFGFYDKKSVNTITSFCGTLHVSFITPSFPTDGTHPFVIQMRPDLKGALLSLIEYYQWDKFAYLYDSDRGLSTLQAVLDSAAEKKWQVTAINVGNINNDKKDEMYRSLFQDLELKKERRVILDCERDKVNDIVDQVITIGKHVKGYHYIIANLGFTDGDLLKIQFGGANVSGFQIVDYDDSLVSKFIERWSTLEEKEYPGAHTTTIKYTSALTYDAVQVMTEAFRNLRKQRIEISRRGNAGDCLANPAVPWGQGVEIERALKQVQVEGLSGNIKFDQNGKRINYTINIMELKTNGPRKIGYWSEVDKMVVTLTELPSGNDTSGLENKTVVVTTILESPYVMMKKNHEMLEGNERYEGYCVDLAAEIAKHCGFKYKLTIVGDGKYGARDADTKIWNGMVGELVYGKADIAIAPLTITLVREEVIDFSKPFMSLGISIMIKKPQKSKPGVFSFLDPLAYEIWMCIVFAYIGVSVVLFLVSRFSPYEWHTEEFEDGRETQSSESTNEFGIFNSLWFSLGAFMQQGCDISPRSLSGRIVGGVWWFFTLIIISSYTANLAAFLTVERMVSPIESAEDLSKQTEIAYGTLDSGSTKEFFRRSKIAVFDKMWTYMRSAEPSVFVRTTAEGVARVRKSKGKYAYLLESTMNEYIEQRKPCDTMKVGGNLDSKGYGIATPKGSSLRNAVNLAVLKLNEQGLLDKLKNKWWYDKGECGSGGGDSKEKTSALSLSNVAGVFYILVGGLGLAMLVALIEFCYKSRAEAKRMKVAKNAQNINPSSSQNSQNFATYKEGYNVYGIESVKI

| EC50 (Glutamate receptor 2 [1]) [µM] | CL (Liver microsomes) [mL/min/g] | Activity (Glutamate receptor 2 [3]) [%] | solubility [4] [µg/mL] | Kp [5] | half-life [6] [h] | SMILES | IC50 [2] [µM] |
| --- | --- | --- | --- | --- | --- | --- | --- |
| 4 |  | 74 |  |  |  | CC(C)S(=O)(=O)N[C@H]1CN(c2ccccc2)CC1c1ccc(-c2ccc(F)nc2)cc1 (single isomer, unassigned) | 0.08 |
| 0.1 |  | 124 |  |  |  | CC(=O)c1cccc(-c2ccc(C3COC[C@H]3NS(=O)(=O)C(C)C)cc2)c1 (single isomer, unassigned) |  |
| 0.3 |  | 125 |  |  |  | CC(C)S(=O)(=O)N[C@@H]1COCC1c1ccc(-c2ccc(F)nc2)cc1 (single isomer, unassigned) | 12.6 |
| 0.3 | 0.8 | 117 |  |  |  | CC(C)S(=O)(=O)N[C@@H]1COCC1c1ccc(-c2ccc(F)cn2)cc1 (single isomer, unassigned) | > 63 |
| 0.4 |  | 120 |  |  |  | CC(C)S(=O)(=O)N[C@@H]1COCC1c1ccc(-c2ccsc2)cc1 (single isomer, unassigned) |  |
| 1.6 | 0.7 | 111 |  |  |  | CCN1CC(c2ccc(-c3cccc(NS(C)(=O)=O)c3)cc2)[C@@H](NS(=O)(=O)C(C)C)C1 (single isomer, unassigned) | 2.5 |
| 5 | 0.8 | 109 | > 2700 | 1.8 | > 2 | CC(C)S(=O)(=O)N[C@H]1CN(C)CC1c1ccc(-c2ccc(C#N)cc2)cc1 (single isomer, unassigned) |  |
| 4 |  | 79 |  |  |  | CC(=O)Nc1cccc(-c2ccc(C3CN(C)C[C@@H]3NS(=O)(=O)C(C)C)cc2)c1 (single isomer, unassigned) | 12.6 |
| 2.5 |  | 20 |  |  |  | CC(C)S(=O)(=O)N[C@H]1CN(C)CC1c1ccc(-c2ccccc2F)cc1 (single isomer, unassigned) |  |

More lines, now with the values behind:

| SMILES | EC50 (Glutamate receptor 2 [1]) [µM] | CL (Liver microsomes) [mL/min/g] | Activity (Glutamate receptor 2 [3]) [%] | solubility [4] [µg/mL] | Kp [5] | half-life [6] [h] | IC50 [2] [µM] |
| --- | --- | --- | --- | --- | --- | --- | --- |
| CC(C)S(=O)(=O)N[C@H]1CN(C)CC1c1ccc(-c2ccc(F)nc2)cc1 (single isomer, unassigned) | 5 | 0.8 | 117 |  |  |  | 1 |
| CC(C)S(=O)(=O)N[C@H]1CN(C)CC1c1ccc(-c2cccs2)cc1 (single isomer, unassigned) | 20 |  | 29 |  |  |  | > 63 |
| CC(C)S(=O)(=O)N[C@H]1CN(C)CC1c1ccc(-c2ccsc2)cc1 (single isomer, unassigned) | 3.2 |  | 106 |  |  |  | 4 |
| CC(C)S(=O)(=O)N[C@@H]1COCC1c1ccc(-c2ccc(C#N)cc2)cc1 (single isomer, unassigned) | 0.5 |  | 112 |  |  |  | 12.6 |
| CC(C)S(=O)(=O)N[C@@H]1COCC1c1ccc(-c2cncc(F)c2)cc1 (single isomer, unassigned) | 0.3 | 0.6 | 131 |  |  |  | > 63 |
| CC(C)S(=O)(=O)N[C@@H]1COCC1c1ccc(-c2cccs2)cc1 (single isomer, unassigned) | 0.3 |  | 117 |  |  |  | > 63 |
| CC(C)S(=O)(=O)N[C@H]1CN(C)CC1c1ccc(-c2cccc(NS(C)(=O)=O)c2)cc1 (single isomer, unassigned) | 0.3 |  | 124 | > 9000 |  |  | 31.6 |
| CC(C)N1CC(c2ccc(-c3cccc(NS(C)(=O)=O)c3)cc2)[C@@H](NS(=O)(=O)C(C)C)C1 (single isomer, unassigned) |  | 0.7 | 89 |  |  |  |  |
| CC(C)S(=O)(=O)N[C@H]1CN(c2ccccc2)CC1c1ccc(-c2cccc(NS(C)(=O)=O)c2)cc1 (single isomer, unassigned) | 5 |  | 38 |  |  |  |  |
| CCN1CC(c2ccc(-c3ccc(C#N)cc3)cc2)[C@@H](NS(=O)(=O)C(C)C)C1 (single isomer, unassigned) | 7.9 | 1.2 | 90 |  |  |  |  |
| CC(C)N1CC(c2ccc(-c3ccc(C#N)cc3)cc2)[C@@H](NS(=O)(=O)C(C)C)C1 (single isomer, unassigned) | 20 |  | 30 |  |  |  |  |
| CC(C)S(=O)(=O)N[C@H]1CN(c2ccccc2)CC1c1ccc(-c2ccc(C#N)cc2)cc1 (single isomer, unassigned) | 6.2 |  | 48 |  |  |  | 0.8 |
| CC(C)S(=O)(=O)N[C@H]1CN(C)CC1c1ccc(-c2cccc(S(C)(=O)=O)c2)cc1 (single isomer, unassigned) | 5 |  | 75 |  |  |  |  |
| CC(=O)c1cccc(-c2ccc(C3CN(C)C[C@@H]3NS(=O)(=O)C(C)C)cc2)c1 (single isomer, unassigned) | 6.3 |  | 73 |  |  |  | 7.9 |
| CC(C)S(=O)(=O)N[C@H]1CN(C)CC1c1ccc(-c2cccc(C(F)(F)F)c2)cc1 (single isomer, unassigned) | 79.4 |  | 26 |  |  |  |  |
| CC(C)S(=O)(=O)N[C@H]1CN(C)CC1c1ccc(-c2cccnc2)cc1 (single isomer, unassigned) | 4 |  | 100 |  |  |  | 31.6 |
| CC(C)S(=O)(=O)N[C@H]1CN(C)CC1c1ccc(-c2cccnc2F)cc1 (single isomer, unassigned) | 2.5 |  | 101 |  |  |  | 6.3 |
